Experimental data reported in publication PMC3420821 (Chemistry & biology, 2011).

How the values were obtained:
CB2 receptors [1] = target: T1, CB2 receptors (Mus musculus, UniProt P47936); test: NIR-mbc94 binding competition in intact BV-2 cells; settings: read-out: Ki (competition for NIR-mbc94 binding)
CB2 receptors [2] = target: T1, CB2 receptors; type: binding; settings: saturation, homogenates of CB2-mid DBT cells
CB2 receptor mRNA = test: qPCR of CB2 receptor mRNA in primary microglia; type: cell-based, mouse; settings: 72 hr
CB2 receptors [3] = settings: ref Rinaldi-Carmona et al., 1998; cited from earlier work

T1 sequence (P47936 whole entry): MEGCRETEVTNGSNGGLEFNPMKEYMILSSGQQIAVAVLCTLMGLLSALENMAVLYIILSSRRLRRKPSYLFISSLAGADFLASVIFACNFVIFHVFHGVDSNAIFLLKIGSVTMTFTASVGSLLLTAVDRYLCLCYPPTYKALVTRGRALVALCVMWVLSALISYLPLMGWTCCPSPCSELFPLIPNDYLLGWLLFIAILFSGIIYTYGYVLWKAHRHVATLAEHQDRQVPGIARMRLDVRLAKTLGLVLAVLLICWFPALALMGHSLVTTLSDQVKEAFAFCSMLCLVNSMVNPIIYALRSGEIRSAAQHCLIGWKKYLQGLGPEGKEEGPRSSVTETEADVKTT

## Cc1c(C(=O)c2cccc3ccccc23)c2cccc3c2n1[C@H](CN1CCOCC1)CO3 [WIN55212-2]
CB2 receptors [1]
  Ki: 3 nM

## CCCCCCC(C)(C)c1ccc([C@@H]2C[C@H](O)CC[C@H]2CCCO)c(O)c1 [[^3H]-CP-55,940]
CB2 receptors [2]; read-out: Kd of [3H]-CP-55,940
  Kd: 3.1 nM
CB2 receptors [2]
  Bmax of [3H]-CP-55,940: 6 pmol/mg

## IL-4: cytokine that promotes alternative activation phenotype in macrophages/microglia
CB2 receptor mRNA
  increase of CB2 receptor mRNA: ~ 5 fold

## SR144528
CB2 receptors [3]
  affinity at CB2 receptors: nanomolar affinity

## TGFβ
CB2 receptor mRNA
  effect on CB2 receptor expression (mRNA): did not affect
